Assay results taken from ChEMBL document CHEMBL1201861, “Genomics of Drug Sensitity in Cancer screening data, Wellcome Trust Sanger Institute”.

Legend:
Experiment in all cases: cells
ES1 = format: functional, cell-based, Homo sapiens; conditions: Homo sapiens, ES1;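 note: growth inhibition of ES1 cells, read out with a cell viability assay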
Description: SANGER: Inhibition of human ES1 cell growth in a cell viability assay.

K562 = format: functional, cell-based, Homo sapiens; conditions: Homo sapiens, K562
Description: SANGER: Inhibition of human K-562 cell growth in a cell viability assay.

LOX IMVI = format: functional, cell-based, Homo sapiens; conditions: Homo sapiens, LOX IMVI
Description: SANGER: Inhibition of human LOXIMVI cell growth in a cell viability assay.

Calu-6 = format: functional, cell-based, Homo sapiens; conditions: Homo sapiens, Calu-6;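 note: growth of human Calu-6 cells, read out by a cell viability assay, IC50 marking inhibition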
Description: SANGER: Inhibition of human Calu-6 cell growth in a cell viability assay.

OMC-1 = format: functional, cell-based, Homo sapiens; conditions: Homo sapiens, OMC-1;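 note: growth inhibition of the OMC-1 cell line, measured by a cell viability assay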
Description: SANGER: Inhibition of human OMC-1 cell growth in a cell viability assay.

NCI-H1395 = format: functional, cell-based, Homo sapiens; conditions: Homo sapiens, NCI-H1395;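 note: cell viability assay read-out quantifying reduced proliferation of human NCI-H1395 cells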
Description: SANGER: Inhibition of human NCI-H1395 cell growth in a cell viability assay.

EW-3 = format: functional, cell-based, Homo sapiens; conditions: Homo sapiens, EW-3;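 note: cell viability assay read-out, IC50 reflects inhibition of growth of the EW-3 cells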
Description: SANGER: Inhibition of human EW-3 cell growth in a cell viability assay.

BT-474 = format: functional, cell-based, Homo sapiens; conditions: Homo sapiens, BT-474
Description: SANGER: Inhibition of human BT-474 cell growth in a cell viability assay.

SW 954 = format: functional, cell-based, Homo sapiens; conditions: Homo sapiens, SW 954;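 note: growth inhibition of SW954 human cancer cells, read out as cell viability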
Description: SANGER: Inhibition of human SW954 cell growth in a cell viability assay.

MHH-NB-11 = format: functional, cell-based, Homo sapiens; conditions: Homo sapiens, MHH-NB-11;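 note: growth inhibition of human MHH-NB-11 cells, read out by a cell viability assay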
Description: SANGER: Inhibition of human MHH-NB-11 cell growth in a cell viability assay.

HCE-4 = format: functional, cell-based; conditions: Homo sapiens;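 note: cell viability assay measuring inhibition of growth in the human HCE-4 cell line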
Description: SANGER: Inhibition of human HCE-4 cell growth in a cell viability assay.

NB10 = format: functional, cell-based, Homo sapiens; conditions: Homo sapiens, NB10;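 note: growth inhibition of NB10 cells, read out by a cell viability assay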
Description: SANGER: Inhibition of human NB10 cell growth in a cell viability assay.

MV4-11 = format: functional, cell-based, Homo sapiens, MV-4-11; conditions: Homo sapiens, MV4-11;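 note: cell viability readout measuring growth inhibition of human MV-4-11 cells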
Description: SANGER: Inhibition of human MV-4-11 cell growth in a cell viability assay.

GI-ME-N = format: functional, cell-based, Homo sapiens; conditions: Homo sapiens, GI-ME-N;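 note: growth inhibition of human GI-ME-N cells, read out with a cell viability assay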
Description: SANGER: Inhibition of human GI-ME-N cell growth in a cell viability assay.

SK-MEL-2 = format: functional, cell-based, Homo sapiens; conditions: Homo sapiens, SK-MEL-2;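 note: growth inhibition of human SK-MEL-2 cells measured with a cell viability assay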
Description: SANGER: Inhibition of human SK-MEL-2 cell growth in a cell viability assay.

CGTH-W-1 = format: functional, cell-based, Homo sapiens; conditions: Homo sapiens, CGTH-W-1;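 note: growth inhibition of human CGTH-W-1 cells measured by cell viability assay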
Description: SANGER: Inhibition of human CGTH-W-1 cell growth in a cell viability assay.

NCI-H1092 = format: functional, cell-based, Homo sapiens; conditions: Homo sapiens, NCI-H1092;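 note: cell growth inhibition measured with a cell viability assay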
Description: SANGER: Inhibition of human NCI-H1092 cell growth in a cell viability assay.

MPP-89 = format: functional, cell-based, Homo sapiens; conditions: Homo sapiens, MPP-89;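 note: growth inhibition of human MPP-89 cells, read out with a cell viability assay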
Description: SANGER: Inhibition of human MPP-89 cell growth in a cell viability assay.

ACN = format: functional, cell-based, Homo sapiens; conditions: Homo sapiens, ACN;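 note: growth inhibition of the human ACN cell line, read out via cell viability testing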
Description: SANGER: Inhibition of human ACN cell growth in a cell viability assay.

BE-13 = format: functional, cell-based, Homo sapiens; conditions: Homo sapiens, BE-13;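 note: growth inhibition of human BE-13 cells, measured with a cell viability assay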
Description: SANGER: Inhibition of human BE-13 cell growth in a cell viability assay.

VA-ES-BJ = format: functional, cell-based, Homo sapiens; conditions: Homo sapiens, VA-ES-BJ;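 note: growth inhibition of the VA-ES-BJ cell line, read out by a cell viability assay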
Description: SANGER: Inhibition of human VA-ES-BJ cell growth in a cell viability assay.

U-266 = format: functional, cell-based, Homo sapiens; conditions: Homo sapiens, U-266
Description: SANGER: Inhibition of human U-266 cell growth in a cell viability assay.

NCI-H446 = format: functional, cell-based, Homo sapiens; conditions: Homo sapiens, NCI-H446;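 note: growth inhibition of NCI-H446 cells determined by a cell viability assay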
Description: SANGER: Inhibition of human NCI-H446 cell growth in a cell viability assay.

TE-8 = format: functional, cell-based, Homo sapiens; conditions: Homo sapiens, TE-8;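 note: growth inhibition of TE-8 cells, measured with a cell viability readout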
Description: SANGER: Inhibition of human TE-8 cell growth in a cell viability assay.

IA-LM = format: functional, cell-based; conditions: Homo sapiens;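 note: cell viability assay measuring growth inhibition of human IA-LM cells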
Description: SANGER: Inhibition of human IA-LM cell growth in a cell viability assay.

GCIY = format: functional, cell-based, Homo sapiens; conditions: Homo sapiens, GCIY;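 note: growth inhibition of the human GCIY cell line, read out by a cell viability assay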
Description: SANGER: Inhibition of human GCIY cell growth in a cell viability assay.

RXF 393 = format: functional, cell-based, Homo sapiens; conditions: Homo sapiens, RXF 393;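 note: growth inhibition of human RXF 393 cells, read out with a cell viability assay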
Description: SANGER: Inhibition of human RXF393 cell growth in a cell viability assay.

A253 cell line = format: functional, cell-based, Homo sapiens; conditions: Homo sapiens, A253;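 note: growth inhibition of A253 cells, read out with a cell viability assay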
Description: SANGER: Inhibition of human A253 cell growth in a cell viability assay.

P30-OHK = format: functional, cell-based, Homo sapiens; conditions: Homo sapiens, P30-OHK;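 note: growth inhibition of the P30-OHK cell line, read out with a cell viability assay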
Description: SANGER: Inhibition of human P30-OHK cell growth in a cell viability assay.

NCI-H2126 = format: functional, cell-based, Homo sapiens; conditions: Homo sapiens, NCI-H2126;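 note: growth inhibition of the cancer cell line, determined with a cell viability readout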
Description: SANGER: Inhibition of human NCI-H2126 cell growth in a cell viability assay.

NCI-H1770 = format: functional, cell-based, Homo sapiens; conditions: Homo sapiens, NCI-H1770;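 note: growth inhibition of NCI-H1770 cells determined with a viability readout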
Description: SANGER: Inhibition of human NCI-H1770 cell growth in a cell viability assay.

IST-SL1 = format: functional, cell-based, Homo sapiens; conditions: Homo sapiens, IST-SL1;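 note: growth inhibition of human IST-SL1 cells, read out with a cell viability assay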
Description: SANGER: Inhibition of human IST-SL1 cell growth in a cell viability assay.

HEL = format: functional, cell-based, Homo sapiens; conditions: Homo sapiens, HEL;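 note: growth inhibition of HEL cells, read out with a cell viability assay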
Description: SANGER: Inhibition of human HEL cell growth in a cell viability assay.

ALL-PO = format: functional, cell-based, Homo sapiens; conditions: Homo sapiens, ALL-PO;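 note: growth inhibition of ALL-PO cells, read out by a cell viability assay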
Description: SANGER: Inhibition of human ALL-PO cell growth in a cell viability assay.

NCI-H1648 = format: functional, cell-based, Homo sapiens; conditions: Homo sapiens, NCI-H1648;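 note: cell viability assay measuring inhibition of NCI-H1648 cell growth, from the Sanger screening data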
Description: SANGER: Inhibition of human NCI-H1648 cell growth in a cell viability assay.

NB5 = format: functional, cell-based, Homo sapiens; conditions: Homo sapiens, NB5;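 note: growth inhibition of NB5 cells, read out as cell viability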
Description: SANGER: Inhibition of human NB5 cell growth in a cell viability assay.

NCI-H720 = format: functional, cell-based, Homo sapiens; conditions: Homo sapiens, NCI-H720;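 note: growth inhibition of human NCI-H720 cells determined by a cell viability assay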
Description: SANGER: Inhibition of human NCI-H720 cell growth in a cell viability assay.

KALS-1 = format: functional, cell-based, Homo sapiens; conditions: Homo sapiens, KALS-1; read-out: IC50;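 note: growth inhibition of KALS-1 cells, determined with a cell viability assay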
Description: SANGER: Inhibition of human KALS-1 cell growth in a cell viability assay.

MN-60 = format: functional, cell-based, Homo sapiens; conditions: Homo sapiens, MN-60;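 note: growth inhibition of the MN-60 cell line, determined with a cell viability assay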
Description: SANGER: Inhibition of human MN-60 cell growth in a cell viability assay.

DJM-1 = format: functional, cell-based, Homo sapiens; conditions: Homo sapiens, DJM-1;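 note: growth inhibition of human DJM-1 cells, read out by a cell viability assay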
Description: SANGER: Inhibition of human DJM-1 cell growth in a cell viability assay.

TE-12 = format: functional, cell-based, Homo sapiens; conditions: Homo sapiens, TE-12;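 note: growth inhibition of TE-12 cells, read out by a cell viability assay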
Description: SANGER: Inhibition of human TE-12 cell growth in a cell viability assay.

COR-L88 = format: functional, cell-based, Homo sapiens; conditions: Homo sapiens, COR-L88;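 note: growth inhibition of COR-L88 cells, read out with a cell viability assay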
Description: SANGER: Inhibition of human COR-L88 cell growth in a cell viability assay.

EW-13 = format: functional, cell-based, Homo sapiens; conditions: Homo sapiens, EW-13; read-out: IC50;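 note: growth inhibition of EW-13 cells, read out with a cell viability assay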
Description: SANGER: Inhibition of human EW-13 cell growth in a cell viability assay.

NCI-H226 = format: functional, cell-based, Homo sapiens; conditions: Homo sapiens, NCI-H226;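 note: cell viability read-out used to gauge growth inhibition of the cells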
Description: SANGER: Inhibition of human NCI-H226 cell growth in a cell viability assay.

HCC1187 = format: functional, cell-based, Homo sapiens; conditions: Homo sapiens, HCC1187;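 note: growth inhibition of HCC1187 cells, read out with a cell viability assay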
Description: SANGER: Inhibition of human HCC1187 cell growth in a cell viability assay.

MOLT-4 = format: functional, cell-based, Homo sapiens; conditions: Homo sapiens, MOLT-4;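 note: growth inhibition of MOLT-4 cells, determined with a cell viability readout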
Description: SANGER: Inhibition of human MOLT-4 cell growth in a cell viability assay.

NCI-H1355 = format: functional, cell-based, Homo sapiens; conditions: Homo sapiens, NCI-H1355;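 note: growth inhibition of human NCI-H1355 cells, read out by a cell viability assay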
Description: SANGER: Inhibition of human NCI-H1355 cell growth in a cell viability assay.

SK-N-DZ = format: functional, cell-based, Homo sapiens; conditions: Homo sapiens, SK-N-DZ; read-out: IC50;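 note: growth inhibition of the cancer cell line, read out through a viability assay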
Description: SANGER: Inhibition of human SK-N-DZ cell growth in a cell viability assay.

Compound: O=C1NC(=O)c2c1c(-c1ccccc1Cl)cc1[nH]c3ccc(O)cc3c21
- IC50 (ES1): > 2000 nM
- IC50 (K562): > 2000 nM
- IC50 (LOX IMVI): > 2000 nM
- IC50 (Calu-6): > 2000 nM
- IC50 (OMC-1): > 2000 nM
- IC50 (NCI-H1395): > 2000 nM
- IC50 (EW-3): 947 nM
- IC50 (BT-474): > 2000 nM
- IC50 (SW 954): 213 nM
- IC50 (MHH-NB-11): > 2000 nM
- IC50 (HCE-4): > 2000 nM
- IC50 (NB10): > 2000 nM
- IC50 (MV4-11): 809 nM
- IC50 (GI-ME-N): 1530 nM
- IC50 (SK-MEL-2): > 2000 nM
- IC50 (CGTH-W-1): > 2000 nM
- IC50 (NCI-H1092): > 2000 nM
- IC50 (MPP-89): > 2000 nM
- IC50 (ACN): > 2000 nM
- IC50 (BE-13): > 2000 nM
- IC50 (VA-ES-BJ): 1500 nM
- IC50 (U-266): > 2000 nM
- IC50 (NCI-H446): > 2000 nM
- IC50 (TE-8): > 2000 nM
- IC50 (IA-LM): > 2000 nM
- IC50 (GCIY): > 2000 nM
- IC50 (RXF 393): > 2000 nM
- IC50 (A253 cell line): > 2000 nM
- IC50 (P30-OHK): 1910 nM
- IC50 (NCI-H2126): > 2000 nM
- IC50 (NCI-H1770): > 2000 nM
- IC50 (IST-SL1): 1460 nM
- IC50 (HEL): 1220 nM
- IC50 (ALL-PO): > 2000 nM
- IC50 (NCI-H1648): > 2000 nM
- IC50 (NB5): > 2000 nM
- IC50 (NCI-H720): 1700 nM
- IC50 (KALS-1): 834 nM
- IC50 (MN-60): 1200 nM
- IC50 (DJM-1): > 2000 nM
- IC50 (TE-12): > 2000 nM
- IC50 (COR-L88): 1560 nM
- IC50 (EW-13): > 2000 nM
- IC50 (NCI-H226): > 2000 nM
- IC50 (HCC1187): > 2000 nM
- IC50 (MOLT-4): > 2000 nM
- IC50 (NCI-H1355): > 2000 nM
- IC50 (SK-N-DZ): > 2000 nM

Compound: O=C(NCCCNc1nc(Nc2cccc(NC(=O)N3CCCC3)c2)ncc1I)c1cccs1 [BX-795]
- IC50 (ES1): 1750 nM
- IC50 (K562): > 5000 nM
- IC50 (LOX IMVI): 1510 nM
- IC50 (Calu-6): > 5000 nM
- IC50 (OMC-1): > 5000 nM
- IC50 (NCI-H1395): > 5000 nM
- IC50 (BT-474): > 5000 nM
- IC50 (SW 954): 3440 nM
- IC50 (MHH-NB-11): > 5000 nM
- IC50 (HCE-4): > 5000 nM
- IC50 (NB10): 4230 nM
- IC50 (MV4-11): 36.8 nM
- IC50 (GI-ME-N): 1870 nM
- IC50 (SK-MEL-2): 4020 nM
- IC50 (CGTH-W-1): 971 nM
- IC50 (NCI-H1092): > 5000 nM
- IC50 (MPP-89): > 5000 nM
- IC50 (ACN): > 5000 nM
- IC50 (BE-13): 705 nM
- IC50 (VA-ES-BJ): 985 nM
- IC50 (U-266): > 5000 nM
- IC50 (NCI-H446): 4930 nM
- IC50 (TE-8): 3550 nM
- IC50 (IA-LM): 4850 nM
- IC50 (GCIY): > 5000 nM
- IC50 (RXF 393): 3410 nM
- IC50 (A253 cell line): 4190 nM
- IC50 (P30-OHK): 496 nM
- IC50 (NCI-H2126): > 5000 nM
- IC50 (NCI-H1770): > 5000 nM
- IC50 (IST-SL1): 2320 nM
- IC50 (HEL): > 5000 nM
- IC50 (ALL-PO): 1060 nM
- IC50 (NCI-H1648): > 5000 nM
- IC50 (NB5): 2940 nM
- IC50 (KALS-1): 3310 nM
- IC50 (MN-60): 3590 nM
- IC50 (DJM-1): > 5000 nM
- IC50 (TE-12): > 5000 nM
- IC50 (EW-13): > 5000 nM
- IC50 (NCI-H226): > 5000 nM
- IC50 (HCC1187): 2900 nM
- IC50 (MOLT-4): 1030 nM
- IC50 (NCI-H1355): > 5000 nM
- IC50 (SK-N-DZ): > 5000 nM
